Source: patent publication US20260262643A1, “HERBICIDAL BENZOXAZINES” (FMC CORPORATION, priority 2022, published 2026)

Experiments:
ducksalad = experiment: Test D flooded paddy test; assay type: in vivo, Heteranthera limosa; details: 250 g ai/ha, applied to paddy water, visual rating after 13 to 14 days, scale 0 to 100 (0 no effect, 100 complete control)
Outline: (§1)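 Rating scale 0–100 (0 no effect, 100 complete control), visual, versus controls. Readout at 13–14 days after in-water application to 2-leaf plants in pots flooded 3 cm deep.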

corn [1] = experiment: Test C postemergence; assay type: in vivo, Zea mays; details: 10 days, 0 to 100 scale (0 no effect, 100 complete control)
Outline: (§2)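 Visual injury score, 0–100 (100 = complete control), taken 10 days after treatment relative to untreated controls. Pre: directed spray onto soil over sown seeds. Post: foliar spray at one- to two-leaf stage, 2–10 cm. Solvent/surfactant formulation; loam–sand soil; greenhouse.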

ryegrass, Italian [2] = experiment: Test C postemergence; assay type: in vivo, Lolium multiflorum; details: 10 days, 0 to 100 scale (0 no effect, 100 complete control)
Outline: as §2

blackgrass [3] = experiment: Test C preemergence; assay type: in vivo, Alopecurus myosuroides
Outline: as §2

corn [4] = experiment: Test C preemergence; assay type: in vivo, Zea mays
Outline: as §2

rice = experiment: Test D flooded paddy test; assay type: in vivo, Oryza sativa; details: 250 g ai/ha, applied to paddy water, visual rating after 13 to 14 days, scale 0 to 100 (0 no effect, 100 complete control)
Outline: as §1

green foxtail [5] = experiment: Test C postemergence; assay type: in vivo, Setaria viridis; details: 10 days, 0 to 100 scale (0 no effect, 100 complete control)
Outline: as §2

oat, wild = experiment: Test C postemergence; assay type: in vivo, Avena fatua; details: 10 days, 0 to 100 scale (0 no effect, 100 complete control)
Outline: as §2

barnyardgrass [6] = experiment: Test D flooded paddy test; assay type: in vivo, Echinochloa crus-galli; details: 250 g ai/ha, applied to paddy water, visual rating after 13 to 14 days, scale 0 to 100 (0 no effect, 100 complete control)
Outline: as §1

blackgrass [7] = experiment: Test C postemergence; assay type: in vivo, Alopecurus myosuroides; details: 10 days, 0 to 100 scale (0 no effect, 100 complete control)
Outline: as §2

ragweed [8] = experiment: Test C preemergence; assay type: in vivo, Ambrosia artemisiifolia
Outline: as §2

wheat [9] = experiment: Test C preemergence; assay type: in vivo, Triticum aestivum
Outline: as §2

ragweed [10] = experiment: Test C postemergence; assay type: in vivo, Ambrosia artemisiifolia; details: 10 days, 0 to 100 scale (0 no effect, 100 complete control)
Outline: as §2

pigweed, palmer [11] = experiment: Test C preemergence; assay type: in vivo, Amaranthus palmeri
Outline: as §2

kochia [12] = experiment: Test C preemergence; assay type: in vivo, Bassia scoparia
Outline: as §2

galium = experiment: Test C postemergence; assay type: in vivo, Galium aparine; details: 10 days, 0 to 100 scale (0 no effect, 100 complete control)
Outline: as §2

pigweed, palmer [13] = experiment: Test C postemergence; assay type: in vivo, Amaranthus palmeri; details: 10 days, 0 to 100 scale (0 no effect, 100 complete control)
Outline: as §2

barnyardgrass [14] = experiment: Test C preemergence; assay type: in vivo, Echinochloa crusgalli
Outline: as §2

horseweed = experiment: Test C postemergence; assay type: in vivo, Erigeron canadensis; details: 10 days, 0 to 100 scale (0 no effect, 100 complete control)
Outline: as §2

soybean [15] = experiment: Test C postemergence; assay type: in vivo, Glycine max; details: 10 days, 0 to 100 scale (0 no effect, 100 complete control)
Outline: as §2

ryegrass, Italian [16] = experiment: Test C preemergence; assay type: in vivo, Lolium multiflorum
Outline: as §2

green foxtail [17] = experiment: Test C preemergence; assay type: in vivo, Setaria viridis
Outline: as §2

wheat [18] = experiment: Test C postemergence; assay type: in vivo, Triticum aestivum; details: 10 days, 0 to 100 scale (0 no effect, 100 complete control)
Outline: as §2

kochia [19] = experiment: Test C postemergence; assay type: in vivo, Bassia scoparia; details: 10 days, 0 to 100 scale (0 no effect, 100 complete control)
Outline: as §2

barnyardgrass [20] = experiment: Test C postemergence; assay type: in vivo, Echinochloa crusgalli; details: 10 days, 0 to 100 scale (0 no effect, 100 complete control)
Outline: as §2

sedge, umbrella = experiment: Test D flooded paddy test; assay type: in vivo, Cyperus difformis; details: 250 g ai/ha, applied to paddy water, visual rating after 13 to 14 days, scale 0 to 100 (0 no effect, 100 complete control)
Outline: as §1

soybean [21] = experiment: Test C preemergence; assay type: in vivo, Glycine max
Outline: as §2

[22] = 500 g ai/ha, preemergence, 0 to 100 scale (0 no effect, 100 complete control)
[23] = Preemergence, 125 g ai/ha, 0 to 100 scale, 0 no effect, 100 complete control

Cc1ccc(-n2cnc(C(C)O)n2)cc1C(=O)N1CC(C)Oc2c(Cl)cccc21 (mixture of isomers) [Compound 358]
Plant response rating, Ducksalad (Flood) (ducksalad): 95
Plant response rating, Corn (corn [1]; 500 g ai/ha, postemergence): 90
Plant response rating, Corn (corn [1]; Postemergence, 125 g ai/ha): 90
Plant response rating, Ryegrass, Italian (ryegrass, Italian [2]; 500 g ai/ha, postemergence): 100
Plant response rating, Ryegrass, Italian (ryegrass, Italian [2]; Postemergence, 125 g ai/ha): 90
Blackgrass plant response rating (blackgrass [3]; [22]): 90
Plant response rating, Blackgrass (blackgrass [3]; [23]): 80
Corn plant response rating (corn [4]; [22]): 70
Plant response rating, Corn (corn [4]; [23]): 50
Plant response rating, Rice (Flood) (rice): 15
Plant response rating, Foxtail, Green (green foxtail [5]; 500 g ai/ha, postemergence): 90
Plant response rating, Foxtail, Green (green foxtail [5]; Postemergence, 125 g ai/ha): 90
Plant response rating, Oat, Wild (oat, wild; 500 g ai/ha, postemergence): 80
Plant response rating, Oat, Wild (oat, wild; Postemergence, 125 g ai/ha): 30
Plant response rating, Barnyardgrass (Flood) (barnyardgrass [6]): 30
Plant response rating, Blackgrass (blackgrass [7]; 500 g ai/ha, postemergence): 100
Plant response rating, Blackgrass (blackgrass [7]; Postemergence, 125 g ai/ha): 90
Ragweed plant response rating (ragweed [8]; [22]): 90
Plant response rating, Ragweed (ragweed [8]; [23]): 70
Wheat plant response rating (wheat [9]; [22]): 90
Plant response rating, Wheat (wheat [9]; [23]): 50
Plant response rating, Ragweed (ragweed [10]; 500 g ai/ha, postemergence): 80
Plant response rating, Ragweed (ragweed [10]; Postemergence, 125 g ai/ha): 50
Pigweed, Palmer plant response rating (pigweed, palmer [11]; [22]): 100
Plant response rating, Pigweed, Palmer (pigweed, palmer [11]; [23]): 100
Kochia plant response rating (kochia [12]; [22]): 100
Plant response rating, Kochia (kochia [12]; [23]): 20
Plant response rating, Galium (galium; 500 g ai/ha, postemergence): 100
Plant response rating, Galium (galium; Postemergence, 125 g ai/ha): 100
Plant response rating, Pigweed, Palmer (pigweed, palmer [13]; 500 g ai/ha, postemergence): 80
Plant response rating, Pigweed, Palmer (pigweed, palmer [13]; Postemergence, 125 g ai/ha): 50
Barnyardgrass plant response rating (barnyardgrass [14]; [22]): 100
Plant response rating, Barnyardgrass (barnyardgrass [14]; [23]): 100
Plant response rating, Horseweed (horseweed; 500 g ai/ha, postemergence): 90
Plant response rating, Horseweed (horseweed; Postemergence, 125 g ai/ha): 70
Plant response rating, Soybean (soybean [15]; 500 g ai/ha, postemergence): 100
Plant response rating, Soybean (soybean [15]; Postemergence, 125 g ai/ha): 100
Ryegrass, Italian plant response rating (ryegrass, Italian [16]; [22]): 100
Plant response rating, Ryegrass, Italian (ryegrass, Italian [16]; [23]): 90
Foxtail, Green plant response rating (green foxtail [17]; [22]): 100
Plant response rating, Foxtail, Green (green foxtail [17]; [23]): 100
Plant response rating, Wheat (wheat [18]; 500 g ai/ha, postemergence): 80
Plant response rating, Wheat (wheat [18]; Postemergence, 125 g ai/ha): 50
Plant response rating, Kochia (kochia [19]; 500 g ai/ha, postemergence): 70
Plant response rating, Kochia (kochia [19]; Postemergence, 125 g ai/ha): 40
Plant response rating, Barnyardgrass (barnyardgrass [20]; 500 g ai/ha, postemergence): 100
Plant response rating, Barnyardgrass (barnyardgrass [20]; Postemergence, 125 g ai/ha): 90
Plant response rating, Sedge, Umbrella (Flood) (sedge, umbrella): 90
Soybean plant response rating (soybean [21]; [22]): 100
Plant response rating, Soybean (soybean [21]; [23]): 100
